This is an account of results in PMC9127371, “Assembly of nuclear dimers of PI3K regulatory subunits is regulated by the Cdc42-activated tyrosine kinase ACK” (The Journal of Biological Chemistry, 2022).

Holding throughout (format): cell-based
The subject of assay [1] is HEK293T cells expressing Y599F p85β. In words: Proliferation of HEK293T cells stably expressing Y599F p85β. The note with it: AIM-100 8 μM; DMEM + 10% FBS; 1 μg/ml doxycycline; live cell counts, fold change over 24 h; three independent experiments. The protocol:
(§1) Figure 4 Proliferation of HEK293T cells expressing ACK and p85β variants.A, proliferation of HEK293T cells stably expressing wtACK and caACK in 1% FBS. HEK293T cells stably expressing empty vector (control) or HA-tagged wtACK or caACK were seeded at a density of 3 × 10^4 cells per well. Cells were plated in replicates of three, and live cell counts were obtained at the times indicated. Data are plotted as fold change over t = 0 (seeding density). Data from three independent experiments are shown. Error bars represent SD. […] GAPDH is included as a loading control. Data are represented on the right in a bar chart with group significance testing performed by a two-way ANOVA; ∗p <0.05; ∗∗p < 0.01. B, proliferation of HEK293T cells stably expressing empty vector (control), WT p85β, or Y599F p85β. HEK293T cells stably expressing inducible FLAG-tagged WT p85β or p85β Y599F were seeded at a density of 3 × 10^4 cells per well and incubated at 37 °C for 16 h. All cells were then treated with 1 μg/ml doxycycline and incubated at 37 °C for the times indicated before live cell counts were taken. Data are plotted as fold change over the cell count at 24 h post doxycycline treatment. […]
(§2) Matched cell lines were chosen that had similar expression levels of the transgene. […] Cells were trypsinized and dispersed using a syringe before being counted using a Countess automated cell counter at specific timepoints. […]

For assay [2], the system named is HEK293T cells expressing WT p85β. In words: Proliferation of HEK293T cells stably expressing WT p85β. The conditions noted are these: AIM-100 8 μM; DMEM + 10% FBS; 1 μg/ml doxycycline; live cell counts, fold change over 24 h; three independent experiments. As to the method: as §1, §2
The subject of assay [3] is pTyr284 ACK. In words: Active ACK level (pTyr284 ACK Western blot) in HEK293T cells. The note with it: AIM-100 8 μM; HEK293T cells expressing ACK and WT p85α; Western blot of whole cell lysate. The protocol:
Figure 7 Subcellular localization of the ACK–p85α complex. ACK and WT p85α were expressed alone and together in HEK293T cells. Where indicated, cells were treated with 8 μM AIM-100. Fractionation was judged using anti-HSP56 to indicate cytoplasmic extracts and anti-fibrillarin to indicate nuclear-enriched fractions. Nuclear and cytoplasmic-enriched fractions were normalized using the Bradford assay, and FLAG-p85α was immunoprecipitated from fractions containing equal total protein using an anti-FLAG antibody. Top panel: Immunoprecipitation of FLAG-p85α and co-immunoprecipitation of HA-ACK was assessed by Western blotting using anti-FLAG and anti-HA antibodies. Bottom panel: Expression of FLAG-p85α and HA-ACK along with active ACK levels was confirmed by Western blotting of whole cell lysate (WCL) samples collected prior to cell fractionation. ACK, activated Cdc42-associated kinase. […]
(A western blot detects proteins with antibodies after separation by electrophoresis.)

The subject of assay [4] is ACK–p85α complex. In words: Co-immunoprecipitation of ACK with p85α from nuclear-enriched fractions of HEK293T cells. The note with it: AIM-100 8 μM, anti-FLAG immunoprecipitation. The protocol:
Figure 7 Subcellular localization of the ACK–p85α complex. ACK and WT p85α were expressed alone and together in HEK293T cells. Where indicated, cells were treated with 8 μM AIM-100. Fractionation was judged using anti-HSP56 to indicate cytoplasmic extracts and anti-fibrillarin to indicate nuclear-enriched fractions. Nuclear and cytoplasmic-enriched fractions were normalized using the Bradford assay, and FLAG-p85α was immunoprecipitated from fractions containing equal total protein using an anti-FLAG antibody. Top panel: Immunoprecipitation of FLAG-p85α and co-immunoprecipitation of HA-ACK was assessed by Western blotting using anti-FLAG and anti-HA antibodies. Bottom panel: Expression of FLAG-p85α and HA-ACK along with active ACK levels was confirmed by Western blotting of whole cell lysate (WCL) samples collected prior to cell fractionation. ACK, activated Cdc42-associated kinase.
Small-scale co-immunoprecipitations were performed using 1 μg antibody cross-linked to Protein G Dynabeads (Life Technologies) with dimethyl pimelimidate. HEK293T cells were grown in 10 cm dishes to 70% confluence and then transfected for 40 h. […]
Cells were grown in 10 cm dishes to 70% confluence and then transfected for 40 h. […] Cytoplasmic and nuclear-enriched fractions were then either analyzed by SDS-PAGE gel directly or used in co-immunoprecipitation studies.

For assay [5], the system named is p85α–p85β complex. In words: Co-immunoprecipitation of V5-p85β with FLAG-p85α from HEK293T cells. The conditions noted are these: serum starved (0.05% serum, 16 h), then EGF 100 ng/ml for 5 min or insulin 100 μg/ml for 90 min; anti-FLAG immunoprecipitation; Fig. 6B. As to the method: (§3) Figure 6 Dimerization of the regulatory subunits. HEK293T cells were transfected with control (GFP), FLAG-p50α (A) or FLAG-p85α (B) alone or with V5-p85β. Expression of the proteins in whole cell lysates (WCLs) is shown in the bottom panels. As indicated, cells were cultured in high serum (10% serum) or serum starved (0.05% serum) for 16 h and prior to lysis were either left untreated or stimulated with either EGF (100 ng/ml for 5 min) or insulin (100 μg/ml for 90 min). Cells were harvested 40 h after transfection and subject to immunoprecipitation using anti-FLAG antibodies. Co-precipitation of V5-p85β was assessed by Western blotting of immunoprecipitated samples using anti-V5 antibodies (top panels). C, WT p85β, WT p50α, and Y307D p50α (equivalent to Tyr607 in p85α) were expressed alone or co-expressed in HEK293T cells cultured in low serum. Samples of WCLs were analyzed by Western blotting using the antibodies indicated and are shown in lower panels. GAPDH is included as a loading control. FLAG-tagged p50α variants were immunoprecipitated from cell lysates using an anti-FLAG antibody, and the co-immunoprecipitation of p85β was assessed using an anti-V5 antibody (top panels). Results are representative of at least three independent experiments. […]

In assay [6] the test system is p50α–p85β complex. In words: Co-immunoprecipitation of V5-p85β with FLAG-p50α from HEK293T cells. The conditions noted are these: serum starved (0.05% serum, 16 h), insulin 100 μg/ml for 90 min; anti-FLAG immunoprecipitation; Fig. 6A. The protocol:
as §3

As to `c1ccc(-c2oc3ncnc(NC[C@@H]4CCCO4)c3c2-c2ccccc2)cc1` [AIM-100], in assay [1], the “effect on proliferation of cells expressing Y599F p85β” value was “did not affect”. In assay [2], the “effect on proliferation of cells expressing WT p85β” value is listed as “grew at a reduced rate”. Moreover, the “active ACK levels (pTyr284 ACK)” value in assay [3] is “reduced active ACK levels”. For the same compound, the “p85α–ACK complex formation in the nucleus” value in assay [4] is given as “did not block p85α–ACK complex formation”.
In the case of “EGF: EGF (a known stimulator of ACK) (NSDSECPLSHDGYCLHDGVCMYIEALDKYACNCVVGYIGERCQYRDLKWWELR; UniProt P01133 971-1023, looked up)”, the “p85α–p85β complex formation” value in assay [5] is “increase”.
Regarding “insulin: Tyr607 phosphorylation has been detected downstream of insulin stimulation”, the “p85α–p85β complex formation” value in assay [5] was “not enhanced”. Also, the “p50α–p85β complex formation” value in assay [6] is reported as “increased complex formation”.
